Test results taken from BigSolDB 2.1.

CC[C@H](C)[C@H](N)C(=O)O
solubility (mole fraction)
Conditions	283.15 K	288.15 K	293.15 K	298.15 K	303.15 K	308.15 K	313.15 K	318.15 K	323.15 K	328.15 K
in 1,4-dioxane	–	0.00118	0.00132	0.00146	0.00172	0.00195	0.00226	0.00258	0.00303	0.00339
in 2-butanone	0.000223	0.000324	0.000415	0.000538	0.000646	0.000819	0.000978	0.00118	0.00145	–
in acetone	1.21e-05	1.47e-05	1.82e-05	2.04e-05	3.19e-05	4.37e-05	6.14e-05	8.28e-05	0.000132	–
in acetonitrile	0.000153	0.000185	0.000276	0.000303	0.000374	0.000451	0.000525	0.000582	0.0007	–
in ethanol	0.000199	0.000227	0.000285	0.000363	0.000532	0.000716	0.000881	0.00101	0.00118	–
in ethyl acetate	0.000398	0.000441	0.000482	0.000544	0.000609	0.000656	0.000722	0.000803	0.000891	–
in isobutanol	0.00106	0.00125	0.0015	0.00186	0.00216	0.00246	0.00298	0.00346	0.00394	–
in isopropanol	0.00147	0.00173	0.00207	0.00241	0.00285	0.0034	0.00394	0.00454	0.00494	–
in methanol	0.000793	0.000814	0.000848	0.000891	0.000935	0.000984	0.00105	0.00114	0.00125	–
in methyl acetate	0.00174	0.00194	0.00223	0.00263	0.00292	0.00332	0.00387	0.00472	0.00545	–
in n-butanol	9.12e-05	0.000142	0.000221	0.000282	0.000372	0.000468	0.000585	0.00068	0.000838	–
in n-propanol	0.000187	0.000226	0.000268	0.000349	0.000515	0.00069	0.000817	0.0009	0.00101	–
